In test [1] the test system is Arabidopsis HST transgenic tobacco plants. The experiment in a line: Glasshouse spray test, Arabidopsis HST transgenic tobacco. The test is classed as in vivo. The settings on record: for % damaged: 8 DAT; for blch (% bleaching at the meristem relative to control plants) / ht (% height reduction relative to control plants): 100 g, individual T0 lines. The source says:
For example the Arabidopsis HST SEQ ID # 11 is cloned behind a double 35s CMV promoter sequence and a TMV translational enhancer sequence and in front of the 3′ terminator from the nos gene. This expression cassette is ligated into pMJB1 (described in WO98/20144) and then into pBIN19 and then transformed into Agrobacterium tuniqfaciens strains LBA4404 prior to plant transformation.
For example, the full length Arabidopsis HST seq ID # 11 is fused to the TMV translational enhancer sequence (SEQ ID #33) by overlapping PCR and, at the same time, 5′ XhoI site and a 3′KpnI site are added by PCR. Site-directed mutagenesis is performed to remove an internal XhoI site. The TMV/HPPD fusion is removed from the pBIN19 by digestion with XhoI/KpnI and is replaced by the TMV/HST fusion (SEQ ID #34). The TMV/HST fusion is now cloned behind a double 35s promoter and in front of the 3′ terminator from the nos gene. Again the modified pBIN19 vector (‘pBinAT HST’) is then transformed into Agrobacterium tumefaciens strain LBA4404.
A master plate of Agrobacterium tumefaciens containing the binary vector pBinAT HST (described above) or analogous binary vector comprising a different HST is used to inoculate 10 ml LB containing 100 mg/1 Rifampicin plus 50 mg/1 Kanamycin using a single bacterial colony. This is incubated overnight at 28° C. shaking at 200 rpm. This entire overnight culture is used to inoculate a 50 ml volume of LA (plus antibiotics). Again this is cultured overnight at 28° C. shaking at 200 rpm. The Agrobacterium cells are pelleted by centrifuging at 3000 rpm for 15 minutes then resuspended in MS medium with 30 g/1 sucrose, pH 5.9 to an OD ([…])=0.6. This suspension is dispensed in 25 ml aliquots into petri dishes.
Clonal micro-propagated tobacco shoot cultures are used to excise young (not yet fully expanded) leaves. The mid rib and outer leaf margins are removed and discarded, the remaining lamina is cut into 1 cm squares. These are transferred to the Agrobacterium suspension for 20 minutes. Explants are then removed, dabbed on sterile filter paper to remove excess suspension then transferred to NBM medium (MS medium, 30 g/1 sucrose, 1 mg/1 BAP, 0.1 mg/1 NAA, pH 5.9, solidified with 8 g/1 Plantagar), with the abaxial surface of each explant in contact with the medium. Approximately 7 explants are transferred per plate, which are then sealed then maintained in a lit incubator at 25° C., 16 hour photoperiod for 3 days.
Explants are then transferred to NBM medium containing 100 mg/1 Kanamycin plus antibiotics to prevent further growth of Agrobacterium (200 mg/1 timentin with 250 mg/1 carbenicillin). Further subculture on to this same medium is then performed every 2 weeks.
As shoots start to regenerate from the callusing leaf explants these are removed to Shoot elongation medium (MS medium, 30 g/1 sucrose, 8 g/1 Plantagar, 100 mg/1 Kanamycin, 200 mg/1 timentin, 250 mg/1 carbenicillin, pH 5.9). Stable transgenic plants readily root within 2 weeks. To provide multiple plants per event to ultimately allow more than one herbicide test per transgenic plant all rooting shoots are micropropagated to generate 3 or more rooted clones.
Putative transgenic plants that are rooting and show vigorous shoot growth on the medium incorporating Kanamycin are analysed by PCR using primers that amplified a 500 bp fragment within the Arabidopsis HST transgene.
Rooted transgenic T0 plantlets are transferred from agar and potted into 50% peat, 50% John Innes soil no 3 or, for example, MetroMix® 380 soil (Sun Gro Horticulture, Bellevue, Wash.) with slow-release fertilizer in 3 inch round or 4 inch square pots and left regularly watered to establish for 8-12 d in the glass house. Glass house conditions are about 24-27° C. day; 18-21° C. night and approximately a 14 h (or longer in UK summer) photoperiod. Humidity is ˜65% and light levels up to 2000 μmol/m^2 at bench level. […]

Test [2] has as its system tobacco (var Samsun) plantlets on liquid culture medium. As to the kind of experiment: HST + HPPD herbicide effects on tobacco seedlings on liquid culture medium. Format: in vivo. The following applies: for % bleaching, +mesotrione 0.001 ppm / % bleaching, HST herbicide alone: liquid culture medium, 14 DAT; for effect of low amounts of mesotrione on the injury down the dose response / % Injury, plus Mesotrione (0.0005 ppm) / % Injury, plus Mesotrione (0.001 ppm) / % Injury (bleaching), compound 2.13 only: liquid culture; for effect of low amounts of mesotrione on the injury down the dose response: repeat experiments; for % Injury, plus Mesotrione (0.0005 ppm) / % Injury, plus Mesotrione (0.001 ppm) / % Injury (bleaching), compound 2.13 only: 20 DAT. The protocol:
In an alternative herbicide test procedure tobacco (var Samsun) plantlets germinated aseptically in agar made up in 1/3 strength Murashige and Skoog salts medium are transferred after 4 d to float on top of 2.9 ml of sterile liquid culture medium (half strength Murashige and Skoog medium containing 30 mM sucrose) in wells of 12 well plates. Test compounds are added at various doses and bleaching damage is assessed after 14-20 DAT. The plantlets are kept covered under clear perspex and grown at 18° C. (night) and 24° C. (day) under a 1611 day (˜500-900 umol/m^2), 8 h darkness regime Plantlets continue to grow and produce new tissue over the 14-20 DAT period but are bleached and grow less in the presence of controlling concentrations of herbicide.

Setting [3] is: 0.19 ppm + mesotrione 0.001 ppm.
[4] abbreviates: 0.58 ppm + mesotrione 0.001 ppm.
Where [5] appears, read: range of rates of compound 2.13 plus the higher dose of mesotrione.

Several values for one entry are separate records, joined by “and”; a condition that tells them apart may be missing. Equal values may be shown once.

`Oc1c(Cl)c(F)nc(F)c1Cl` [Compound 1.1, haloxydine]: the “% damaged” value is 20% and 40% in test [1] (250 g/ha, line E9); 50% and 75% in test [1] (250 g/ha, line F6). In addition, the appearance of plants entry in test [1] (250 g/ha, 25 DAT, line E9) is “healthy and similar sized to untreated control plants”. The “% damage” value in test [1] (250 g/ha, 25 DAT, line F6) is on record as 50-70%. Besides, the “% bleaching, +mesotrione 0.001 ppm” value in test [2] (setting [3]), in test [2] (setting [4]), in test [2] (1.7 ppm + mesotrione 0.001 ppm), in test [2] (5.2 ppm + mesotrione 0.001 ppm), in test [2] (16 ppm + mesotrione 0.001 ppm) and in test [2] (47 ppm + mesotrione 0.001 ppm) was 100% throughout. Also, the “% bleaching, HST herbicide alone” value in test [2] (0.19 ppm) was 50%; in test [2] (0.58 ppm) it was 90%; in test [2] (1.7 ppm) it was 100%; in test [2] (5.2 ppm) it was 100%; in test [2] (16 ppm) it was 100%; in test [2] (47 ppm), 100%. The “effect of low amounts of mesotrione on the injury down the dose response” value in test [2] was “clear synergistic effects”.
For `O=c1c(-c2c(F)ccc(Br)c2Cl)c(O)c2cccnc2n1CC(F)F` [Compound 2.15], the “% bleaching, +mesotrione 0.001 ppm” value in test [2] (setting [3]) is recorded as 0%; in test [2] (setting [4]), 5%; in test [2] (1.7 ppm + mesotrione 0.001 ppm), 80%; in test [2] (5.2 ppm + mesotrione 0.001 ppm), 70%; in test [2] (16 ppm + mesotrione 0.001 ppm), 100%; in test [2] (47 ppm + mesotrione 0.001 ppm) it was 100%. The “% bleaching, HST herbicide alone” value came out at 5% in test [2] (0.19 ppm); 0% in test [2] (0.58 ppm); 5% in test [2] (1.7 ppm); 40% in test [2] (5.2 ppm); 100% in test [2] (16 ppm); 100% in test [2] (47 ppm). The “effect of low amounts of mesotrione on the injury down the dose response” value in test [2] is “clear synergistic effects”.
Take `CC(C)C(=O)Oc1c(-c2c(F)ccc(Br)c2Cl)c(=O)n(CC(F)F)c2nccnc12` [Compound 2.30]: in test [1] (7 DAT), the “blch (% bleaching at the meristem relative to control plants)” value was 30% (2×) and 5% (4×) and 10% (3×) and 15% (2×) and 50% and 70% (2×) and 20% (2×) and 0% (5×) and 40% and 100% and 80% and 25%; the “ht (% height reduction relative to control plants)” value is 30% (4×) and 0% (7×) and 50% and 70% (3×) and 80% (3×) and 40% (2×) and 5% and 10% (2×) and 15% and 20%. Besides, in test [1] (26 DAT), the “blch (% bleaching at the meristem relative to control plants)” value is 25% (2×) and 0% (16×) and 100% and 85% (2×) and 90% (4×); the “ht (% height reduction relative to control plants)” value was 75% (2×) and 5% (6×) and 15% (2×) and 30% (4×) and 50% (2×) and 60% and 80% and 90% (4×) and 35% and 10% (2×).
As for `O=c1c(-c2c(F)ccc(F)c2Cl)c(O)c2cccnc2n1CC(F)F` [Compound 2.13], the “% Injury, plus Mesotrione (0.0005 ppm)” value was 0% in test [2] (compound 2.13 0.01 ppm + mesotrione 0.0005 ppm); 0% in test [2] (compound 2.13 0.03 ppm + mesotrione 0.0005 ppm); 0% in test [2] (compound 2.13 0.09 ppm + mesotrione 0.0005 ppm); 0% in test [2] (compound 2.13 0.28 ppm + mesotrione 0.0005 ppm); 40% in test [2] (compound 2.13 0.85 ppm + mesotrione 0.0005 ppm); 90% in test [2] (compound 2.13 2.56 ppm + mesotrione 0.0005 ppm). Also, the “% Injury, plus Mesotrione (0.0005 ppm)” value in test [2] (compound 2.13 7.67 ppm + mesotrione 0.0005 ppm) and in test [2] (compound 2.13 23 ppm + mesotrione 0.0005 ppm) was 100% each time. Moreover, the “% Injury, plus Mesotrione (0.001 ppm)” value in test [2] (compound 2.13 0.01 ppm + mesotrione 0.001 ppm) was found to be 40%; in test [2] (compound 2.13 0.03 ppm + mesotrione 0.001 ppm), 60%; in test [2] (compound 2.13 0.09 ppm + mesotrione 0.001 ppm), 80%; in test [2] (compound 2.13 0.28 ppm + mesotrione 0.001 ppm), 80%; in test [2] (compound 2.13 0.85 ppm + mesotrione 0.001 ppm) it was 90%; in test [2] (compound 2.13 2.56 ppm + mesotrione 0.001 ppm), 90%. Further, the “% Injury, plus Mesotrione (0.001 ppm)” value in test [2] (compound 2.13 7.67 ppm + mesotrione 0.001 ppm) and in test [2] (compound 2.13 23 ppm + mesotrione 0.001 ppm) was 100% in each case. Also, the “% Injury (bleaching), compound 2.13 only” value in test [2] (compound 2.13 0.01 ppm), in test [2] (compound 2.13 0.03 ppm), in test [2] (compound 2.13 0.09 ppm), in test [2] (compound 2.13 0.28 ppm), in test [2] (compound 2.13 0.85 ppm) and in test [2] (compound 2.13 2.56 ppm) was 0% in each case. Also, the “% Injury (bleaching), compound 2.13 only” value was found to be 50% in test [2] (compound 2.13 7.67 ppm) and 100% in test [2] (compound 2.13 23 ppm). For the same compound, the “bleaching expected (Colby)” value in test [2] (setting [5]) amounted to 20%. The bleaching observed in test [2] (setting [5]) was 80% and 90%.

Values taken from patent publication US20110173718A1, “HERBICIDE TOLERANT PLANTS” (SYNGENTA CROP PROTECTION, INC., priority 2008, published 2011).
